Laboratory results taken from patent US11779582B2, “Composition for preventing or treating metastatic ovarian cancer, endometrial cancer or breast cancer” (LEMONEX INC., priority 2017, dated 2023).

Experiments:
Type in all cases: cell-based
[1] = system: monolayer cultured SKOV3ip1 ovarian cancer cells; test: crystal violet cell viability, 2D monolayer culture
Experimental: 2D monolayer culture was implemented in the following manner: cells were cultured at 37° C., 5% CO2 humidified atmosphere using RPMI 1640 medium (Corning, NY, USA) supplemented with 10% fetal bovine serum (Gibco, NY, USA) and 10 U/ml penicillin/streptomycin.
Crystal violet staining was implemented to determine the cell viability in the monolayer cultured cell model and sphere cultured cell model. In order to implement the crystal violet staining in the monolayer culture model, SKOV3ip1 cells (5×10^4) were dispensed in commercial 24-well plates and incubated overnight. Thereafter, the drug was dispensed with a desired concentration for experiment into each well, followed by further incubation for 72 hours. 300 μl of 0.2% crystal violet solution was added to each well, followed by further incubation for 20 minutes while gently stirring the same. The stained cells were washed with distilled water until a clean background is observed. For assessment using a colorimeter, the crystal violet dye was extracted with 1% SDS/PBS and absorbance was measured at 570 nm wavelength by EMax PLUS microplate reader (Molecular Device, USA).
The monolayer cultured or sphere cultured SKOV3ip1 cells were treated with the tyrosine kinase inhibitor and paclitaxel for 72 hours, the cell viability was determined by the crystal violet colorimeter, and results thereof are shown in FIG. 3.

[2] = system: HEC1B endometrial cancer cell line (3D sphere culture); test: morphological analysis and crystal violet staining, 3D sphere culture
Experimental: (§1) With respect to the cancer cell lines listed in Table 1 below, synergistic effects of paclitaxel and BGJ398 were further examined. According to the same procedures as described in the previous examples, each cell line was divided and cultured by 2D monolayer culture and 3D sphere culture, respectively. Then, a change due to BGJ398 administration was analyzed through morphological analysis and crystal violet staining assay. All cell lines were purchased from ATCC and used in the present experiments, and detailed information thereof are shown in Table 3 below.
(§2) With respect to the cancer cell lines listed in Table 2 below, synergistic effects of paclitaxel and BGJ398 were further examined. According to the same procedures as described in the previous examples, each cell line was divided and cultured by 2D monolayer culture and 3D sphere culture, respectively. Then, a change due to administration of BGJ398 alone or in combination with paclitaxel was analyzed through morphological analysis.

[3] = system: Hs578T breast cancer cell line (3D sphere culture); test: as above
Experimental: as §1, §2

[4] = system: HEC1B endometrial cancer cell line (2D monolayer culture); test: crystal violet staining and morphology, paclitaxel in combination with BGJ398
Experimental: as §2

[5] = system: Hs578T breast cancer cell line (2D monolayer culture); test: as above
Experimental: as §2

[6] = system: SKOV3-TR ovarian cancer cells; test: crystal violet cell viability in paclitaxel-resistant cells
Experimental: SKOV3-TR cell line was offered from Sood AK in MD-Anderson Cancer Center (USA) and then used in the present experiments.
Paclitaxel resistance of each of SKOV3 and SKOV3-TR was determined by measuring the cell viability through crystal violet colorimetric assay. This experiment was implemented three times and a difference in results thereof was estimated by student's t-test.
(§3) According to the same procedures as described in the previous examples, each cell line was divided and cultured by 2D monolayer culture and 3D sphere culture, respectively. Then, a change due to administration of BGJ398 alone or in combination with paclitaxel was analyzed through morphological analysis and crystal violet staining assay.

[7] = system: SKOV3-TR ovarian cancer cells; test: microscopic analysis of cell shape change due to cytotoxicity
Experimental: as §3
FIG. 20 illustrates a change in cell shape due to cytotoxicity under microscopic analysis, when paclitaxel alone, BGJ398 alone or in combination with paclitaxel was administered to SKOV3-TR ovarian cancer cells.

[8] = system: SKOV3ip1-TR ovarian cancer cells; test: microscopic analysis of cell shape change; details: BGJ398 in combination with paclitaxel (FIG. 21)
Experimental: FIG. 21 illustrates a change in cell shape, when paclitaxel alone, BGJ398 alone or in combination with […] was administered to the SKOV3ip1-TR ovarian cancer cells.

[9] = system: SKOV3-TR ovarian cancer cells; test: FACS assay of DNA content (propidium iodide), Sub-G1
Experimental: More particularly, the degree of cell apoptosis can be confirmed when DNA content in the cell is treated by propidium iodide (PI) staining and is assessed by FACS. If cell apoptosis occurs, genes in the cells are disrupted and Sub-Gi region below G1 is increased.
FIG. 23 graphically illustrates FACS results, which were divided by a cell cycle in the same experiments described above. Referring to this figure, it can be seen that the treatment using 2.5 μM BGJ398 in combination with 50 nM paclitaxel increases Gub-G1 cells in SKOV-TR cells by about 2.5 times, compared to 50 nM paclitaxel alone, thereby improving anticancer activity.

[10] = system: AKT phosphorylation and PARP cleavage in SKOV3-TR ovarian cancer cells; test: PathScan Intracellular Signaling Array Kit; details: BGJ398 in combination with paclitaxel (FIG. 26)
SKOV3-TR = test: crystal violet staining assay, cisplatin and BGJ398, 2D culture; details: BGJ398 in combination with cisplatin (FIGS. 30 and 31)
Experimental: (§4) According to the same procedures as described in the previous examples, each cell line was subjected to 2D culture and a change thereof upon administration of cisplatin alone, BGJ398 alone or in combination with cisplatin was analyzed through crystal violet staining assay.

SKOV3ip1 = test: as above; details: SKOV3ip1, BGJ398 in combination with cisplatin (FIGS. 30 and 31)
Experimental: as §4

## CCN1CCN(c2ccc(Nc3cc(N(C)C(=O)Nc4c(Cl)c(OC)cc(OC)c4Cl)ncn3)cc2)CC1 [BGJ398, 3-(2,6-dichloro-3,5-dimethoxyphenyl)-1-[6-[4-(4-ethylpiperazin-1yl)anilino]pyrimidin-4-yl]-1-methylurea]
[1]; monolayer cultured SKOV3ip1, 72 hours, different concentrations, crystal violet colorimeter (FIG. 3)
  cell viability: not effected
[1]; monolayer cultured SKOV3ip1, BGJ398 concentration increased to 5 μM
  cytotoxicity: cytotoxicity was not revealed
[2]; 3D sphere culture HEC1B, BGJ398 alone or in combination with paclitaxel
  cytotoxicity, cell sphere morphology: cell spheres are collapsed
[2]; sphere cultured HEC1B, BGJ398 alone
  cell apoptosis: cell apoptosis can be found
[3]; 3D sphere culture Hs578T, BGJ398 alone or in combination with paclitaxel
  cytotoxicity, cell sphere morphology: cell spheres are collapsed
[3]; sphere cultured Hs578T, BGJ398 alone
  cell apoptosis: cell apoptosis can be found
[4]; 2D monolayer HEC1B, BGJ398 in combination with paclitaxel (FIG. 10)
  effect on anticancer effects of paclitaxel: enhance anticancer effects of paclitaxel
[4]; HEC1B, BGJ398 in combination with paclitaxel (FIGS. 10 and 11)
  cell apoptosis: cell apoptosis is further increased
[5]; 2D monolayer Hs578T, BGJ398 in combination with paclitaxel (FIG. 13)
  effect on anticancer effects of paclitaxel: enhance anticancer effects of paclitaxel
[5]; Hs578T, BGJ398 in combination with paclitaxel (FIGS. 13 and 14)
  cell apoptosis: cell apoptosis is further increased
[6]; BGJ398 at increasing concentration in combination with paclitaxel (FIG. 18)
  anticancer activity: higher anticancer activity with the increased concentration of BGJ398
[6]; BGJ398 in combination with paclitaxel at increasing concentration (FIG. 19)
  anticancer activity: higher anticancer activity with the increased concentration of paclitaxel
[6]; BGJ398 in combination with paclitaxel vs paclitaxel alone (FIG. 16)
  anticancer activity: significantly improved
[6]; BGJ398 in combination with paclitaxel, 2D monolayer culture and 3D sphere culture (FIG. 17)
  anticancer activity: more improved
[7]; 2.5 μM BGJ398 in combination with 50 nM paclitaxel (FIG. 20)
  cytotoxicity and morphological change: a detachment phenomenon due to cytotoxicity and formation of cells in irregular shapes
[7]; single agent: 2.5 μM BGJ398 or 50 nM paclitaxel (FIG. 20)
  cytotoxicity and morphological change: negligible cytotoxicity and no morphological change
[8]
  paclitaxel resistance / anticancer activity (cell shape): can block paclitaxel resistance, thereby increasing anticancer activity
[9]; 2.5 μM BGJ398 in combination with 50 nM paclitaxel, compared to 50 nM paclitaxel alone (FIG. 23)
  increase of Sub-G1 cells: about 2.5 times
[9]; BGJ398 in combination with paclitaxel (FIG. 22)
  apoptotic cells (region below G1, Sub-G1): the number of apoptotic cells is increased
[10]
  cleaved PARP: increasing the cleaved PARP
  phosphorylation of AKT at serine 473: phosphoylation of AKT at serine 473 is reduced
SKOV3-TR
  anticancer activity: anticancer activity is improved
SKOV3ip1
  anticancer activity: anticancer activity is improved
